Results from patent publication US20150253330A1, “PRE-SELECTION OF SUBJECTS FOR THERAPEUTIC TREATMENT WITH AN HSP90 INHIBITOR BASED ON HYPOXIC STATUS” (Synta Pharmaceuticals Corp., priority 2012, published 2015).
Entries after “also recorded” stand apart in the source; their conditions may differ.

Experiments:
[1] = tested on: MKN45 (wt-p53, wt-KRAS, MET amplified); assay: 72 hr viability by CTG, gastric cancer cells; assay type: cell-based; settings: Homo sapiens, MKN-45, viability by CTG (upper)
Protocol: (§1) Many of the oncoproteins associated with gastric cancer and Hsp90 client proteins including HER2, MET, RAS and the FGFR family. Ganetespib was evaluated for its effect on the growth of AGS (wt-p53 and mut-KRAS) and MKN45 (wt-p53, wt-KRAS, MET amplified) gastric cancer cells.

[2] = tested on: AGS (wt-p53 and mut-KRAS); assay: 72 hr viability by CTG, gastric cancer cells; assay type: cell-based; settings: viability by CTG (upper)
Protocol: as §1

[3] = tested on: ECC12; assay: 72 hr viability by Syto60, gastric cell line; assay type: cell-based; settings: Homo sapiens, Syto60 (lower), read-out: ganetespib IC50
[4] = tested on: Detroit 562 H/N cancer cells; assay: Single agent viability assay, 72 hr, head and neck cancer cells; assay type: cell-based
Source text: (§2) Head and neck (H/N) cancer refers to a group of biologically similar cancers originating from the upper autodigestive tract. First line therapies include EGFR inhibitors and platins. Modulation of EGFR and other client proteins by ganetespib was investigated in Detroit 562 H/N cancer cells.

[5] = tested on: EGFR and other client proteins; assay: Western blot of Hsp90 client proteins in Detroit 562 cells, 24 hr; assay type: cell-based; settings: Detroit 562, 24 hr
Source text: as §2

[6] = tested on: Hsp90 client proteins; assay: Western blot of Hsp90 client proteins in AGS gastric cancer cells; assay type: cell-based
Protocol: Ganetespib was also evaluated for its effects on Hsp90 client proteins in AGS gastric cancer cells by western blot. […] Similar to the observation in melanoma cells, exposure to ganetespib […] BRAF expression.

[7] = tested on: HPAC and ASPC-1 xenograft; assay: In vivo tumor growth delay and angiogenic assay, pancreatic xenografts; design: species or system SCID mice; settings: 100 mg/kg IV once a week for three weeks
Protocol: It's postulated that functional inhibition of Hsp90 by ganetespib can inhibit angiogenesis and growth in vitro and in vivo models of pancreatic cancer. PANC-1 and HPAC cell lines were treated with vehicle or G (50 nM) for 24 h and lysates were analyzed by Western blot. Egg CAM and matrigel plug assays were performed to quantify the effects of ganetespib on angiogenesis. Efficacy of ganetespib (100 mg/kg) was assessed in mice bearing HPAC and ASPC-1 xenograft.
In vivo tumor growth delay and angiogenic assay: Five-week-old SCID mice were divided into 4 groups with 10 animals in each group. First two groups received 100 μl of Ice cold matrigel medium containing ASPC-1 (1×10^6 cells/100 μl) and other two groups received HPAC cell lines subcutaneously. Once the tumor reached 100-120 mm^3, the groups 2 and 4 received ganetespib (100 mg/kg body weight) IV once a week for three weeks. […] Every other day, tumor was measured using vernier caliper scale for a total of five weeks, when the animals were sacrificed. Skin around the implanted matrigel tumor was removed carefully and the tumor with its surrounding was photographed under visible light.

[8] = tested on: A549 cells; assay: Combinatorial viability analysis, 72 hours; assay type: cell-based
Protocol: (§3) For combinatorial analysis, cells were seeded in 96-well plates at a predetermined, optimum growth density for 24 h prior to the addition of drug or vehicle to the culture medium. Drug combinations were applied at a non-constant ratio over a range of concentrations for 72 or 96 hours. […] Cell viability was assessed by either AlamarBlue® (Invitrogen, Carlsbad, Calif.) or CellTiter-Glo® assays and normalized to vehicle controls. For each combination study, the level of growth inhibition (fraction affected) is plotted relative to vehicle control. Data are presented as one relevant combination point and the corresponding single agent data for each cell line tested.

[9] = tested on: H2030 cells; assay: Combinatorial viability analysis, 72 hours; assay type: cell-based
Protocol: as §3

[10] = tested on: H358 cells; assay: Combinatorial viability analysis, 72 hours; assay type: cell-based
Protocol: as §3

[11] = tested on: H2009 cells; assay: Combinatorial viability analysis, 72 hours; assay type: cell-based
Protocol: as §3

[12] = tested on: SNU-5; assay: 72 hr viability by Syto60, gastric cell line; assay type: cell-based; settings: Homo sapiens, Syto60 (lower), read-out: ganetespib IC50
[13] = tested on: Mia-PaCa2, HPAC and PANC-1 cells; assay: Proliferation of pancreatic cancer cell lines, 24 hours (confirmed by XTT assay); assay type: cell-based; settings: p<0.001, one way ANOVA
Protocol: Mia-PaCa2, PANC-1, HPAC and ASPC-1 cell lines (ATCC, Manassas, Va.) were cultured according to the ATCC manual. Medium was supplemented with 10% fetal bovine serum (Invitrogen Corporation, Carlsbad, Calif.), 50 units/ml penicillin, and 50 μg/ml streptomycin (Life Technologies, Inc., Frederick, Md.). Cells were incubated at 37° C. in a humidified 5% CO2 atmosphere.

[14] = tested on: BT-474 breast cancer cells grown as mammospheres; assay: Viability of mammospheres in Matrigel, 72 hr, AlamarBlue; assay type: cell-based; settings: Homo sapiens, BT-474 mammospheres in Matrigel
Protocol: The cells were treated for 72 hr and analyzed by microscopy. IC50 was determined by AlamarBlue®.
BT-474 HER2+ luminal cells were cultured as mammospheres in Matrigel® and exposed to ganetespib for 72 hr.

[15] = tested on: locally advanced or MBC; assay: Phase 2 trial in metastatic breast cancer (MBC); assay type: in vivo, human
Protocol: Patients with locally advanced or MBC were treated with single agent of ganetespib at 200 mg/m^2 on a cycle of once weekly for 3 weeks, one week off, on a 28 day cycle. The primary endpoint of the trial was overall response rate using RECIST 1.1. Patients with HER2+ breast cancer were required to have received prior therapy with trastuzumab. No more than 3 lines of chemotherapy in the metastatic setting were permitted, but there was no limit on prior lines of hormone therapy. Patients were evaluated for response after 2 cycles. The trial used a Simon two-stage design requiring at least 3 responses among the first 22 patients, to allow expansion to a total of 40 patients. A total of 22 patients were treated with a median age of 51 years (38 to 70) and the following subtypes: 13 HER2+ (10 ER+/HER2+; 3 ER−/HER2+), 6 ER+/HER2−, and 3 ER−/PR−/HER2− (TNBC).

[16] = human pancreatic tumor xenografts
[17] = ganetespib combined with pemetrexed
[18] = ganetespib in combination with gemcitabine
[19] = low nanomolar ganetespib combined with camptothecin

`CC(C)c1cc(-c2nnc(O)n2-c2ccc3c(ccn3C)c2)c(O)cc1O` [ganetespib] showed an IC50 [1] of 0.5 nM, an IC50 [2] of 1.5 nM and an IC50 [3] of 12 nM. The “Cell viability after a 72 hr exposure” value ([4]; Detroit 562) was “A fraction of cells remained viable”, the IC50 ([4]; Homo sapiens, Detroit 562, single agent viability, 72 hr) was 42 nM and the “Modulation of EGFR and other client proteins” value [5] was “depletion of EGFR and JAK2”. The “Effect on Hsp90 client proteins by western blot” value [6] was “abolished the expression of EGFR, IGF-IR, C-RAF”, the Angiogenesis in vivo [7, 16] was “inhibition of angiogenesis in vivo; also recorded: decreases angiogenesis” and the Tumor growth [7, 16] was “significant tumor growth delay; also recorded: significantly inhibits tumor growth”. For the same compound, the “Deaths from the treatment” value ([7]; SCID mice) was “None of the animals died”, the Increase in cytotoxicity [8, 17] was “marginal increase in cytotoxicity” and the Increased cell death [8, 18] was 1.4 fold. The Enhanced cell death [9, 17] was 2.4 fold, the “Fold increase in cytotoxicity” value [9, 19] was 3.4 fold and the Increase in cytotoxicity [10, 17] was “marginal increase in cytotoxicity”. For the same compound, the Benefit of combination [10, 18] was “no benefit”, the “Fold increase in cytotoxicity” value [10, 19] was 1.4 fold and the Enhanced cell death [11, 17] was 1.5 fold. For the same compound, the Increased cell death [11, 18] was 2.3 fold, the “Fold increase in cytotoxicity” value [11, 19] was 1.5 fold and the IC50 [12] was 31 nM. The “Proliferation of Mia-PaCa2, HPAC and PANC-1 cells” value [13] was “decreases proliferation”, the IC50 [14] was 20 nM and the “CBR (CR + PR + SD > 6 months)” value ([15]; ER+/HER2− (N = 6)) was 0. It also gave a CR ([15]; ER+/HER2− (N = 6)) of 0, an ORR ([15]; ER+/HER2− (N = 6)) of 0 and a PR ([15]; ER+/HER2− (N = 6)) of 0. The “CBR (CR + PR + SD > 6 months)” value ([15]; HER2+ (N = 13)) was 2 (9%), the CR ([15]; HER2+ (N = 13)) was 0 and the ORR ([15]; HER2+ (N = 13)) was 2 (9%). For the same compound, the PR ([15]; HER2+ (N = 13)) was 2, the “CBR (CR + PR + SD > 6 months)” value ([15]; TNBC (N = 3)) was 0 and the CR ([15]; TNBC (N = 3)) was 0. The ORR ([15]; TNBC (N = 3)) was 0, the PR ([15]; TNBC (N = 3)) was 0 and the “CBR (CR + PR + SD > 6 months)” value ([15]; Total (N = 22)) was 2 (9%). For the same compound, the CR ([15]; Total (N = 22)) was 0, the PR ([15]; Total (N = 22)) was 2 (9%) and the ORR ([15]; Total (N = 22), 200 mg/m^2 once weekly for 3 weeks, one week off) was 2 (9%). For the same compound, the Tolerability ([15]; single agent, expected GI toxicity mild in nature and manageable) was “well tolerated”.
